Source: the NIST ThermoML archive (doi:10.1021/je900888e)

Assay: mn = molality of the nth substance listed, in mol/kg
Conditions: 101 kPa, Liquid; for speed of sound: Pulse-echo method

CCCC[P+](CCCC)(CCCC)CCCC.[Br-] [tetrabutylphosphonium bromide] + CCO
Conditions | mass density, 288.15 K [kg/m3] | mass density, 293.15 K [kg/m3] | mass density, 298.15 K [kg/m3] | mass density, 303.15 K [kg/m3] | mass density, 308.15 K [kg/m3] | mass density, 313.15 K [kg/m3] | mass density, 323.15 K [kg/m3] | speed of sound, 298.15 K [m/s]
m1 = 0.01059 | 794.469 | 790.202 | 785.915 | 781.605 | 777.266 | 772.883 | 763.983 | 1143.4
m1 = 0.01529 | 794.835 | 790.569 | 786.285 | 781.975 | 777.642 | 773.262 | 764.367 | –
m1 = 0.02012 | 795.211 | 790.945 | 786.664 | 782.36 | 778.029 | 773.654 | 764.765 | 1144.2
m1 = 0.02498 | 795.579 | 791.314 | 787.039 | 782.735 | 778.405 | 774.033 | 765.15 | –
m1 = 0.03006 | 795.97 | 791.71 | 787.435 | 783.133 | 778.811 | 774.44 | 765.563 | 1144.9
m1 = 0.03503 | 796.342 | 792.084 | 787.812 | 783.514 | 779.185 | 774.821 | 765.954 | –
m1 = 0.04151 | 796.84 | 792.586 | 788.317 | 784.017 | 779.692 | 775.339 | 766.473 | –
m1 = 0.04161 | – | – | – | – | – | – | – | 1145.8
m1 = 0.05762 | 798.064 | 793.819 | 789.557 | 785.266 | 780.958 | 776.605 | 767.762 | 1147
m1 = 0.0739 | 799.301 | 795.066 | 790.805 | 786.532 | 782.224 | 777.879 | 769.054 | 1148.3
m1 = 0.09578 | 800.947 | 796.718 | 792.466 | 788.201 | 783.906 | 779.575 | 770.773 | 1150
m1 = 0.1153 | 802.415 | 798.195 | 793.96 | 789.696 | 785.405 | 781.083 | 772.302 | 1151.6
m1 = 0.1491 | 805.003 | 800.793 | 796.569 | 792.326 | 788.054 | 783.746 | 775 | 1154
m1 = 0.1902 | 808.127 | 803.94 | 799.735 | 795.51 | 791.254 | 786.963 | 778.257 | 1157.1
m1 = 0.2304 | 811.194 | 807.016 | 802.825 | 798.61 | 794.369 | 790.1 | 781.434 | 1160.1
m1 = 0.2693 | 814.212 | 810.05 | 805.871 | 801.675 | 797.452 | 793.195 | 784.564 | 1163.2
m1 = 0.3148 | 817.67 | 813.522 | 809.364 | 805.185 | 800.979 | 796.743 | 788.154 | 1166.6
m1 = 0.3532 | 820.707 | 816.572 | 812.423 | 808.255 | 804.069 | 799.851 | 791.3 | 1169.7

CC#N [acetonitrile] + CCCC[P+](CCCC)(CCCC)CCCC.[Br-]
m2 = 0
Conditions | mass density [kg/m3]
288.15 K | 787.275
293.15 K | 781.893
298.15 K | 776.493
303.15 K | 771.067
308.15 K | 765.61
313.15 K | 760.119
323.15 K | 749.031

CCCO [propan-1-ol] + CCCC[P+](CCCC)(CCCC)CCCC.[Br-]
m2 = 0
Conditions | mass density [kg/m3]
288.15 K | 807.448
293.15 K | 803.46
298.15 K | 799.452
303.15 K | 795.414
308.15 K | 791.344
313.15 K | 787.227
323.15 K | 778.86
